{
  "source": "paper PMC8068801",
  "about": "“Novel Benzenesulfonate Scaffolds with a High Anticancer Activity and G2/M Cell Cycle Arrest” (Cancers, 2021)",
  "test_system": "U-251 cells",
  "test": "Annexin V binding (apoptosis) assay, U-251",
  "assay_type": "cell-based, human",
  "conditions": "U-251, 6 μM, 48 h",
  "method": "The K562, U-251 and NHDF cells were seeded in 3 cm Petri dishes (Nunc) at a density of 250,000 cells per well and incubated at 37 °C for 24 h. Then, the medium was removed, and freshly prepared solutions of the tested compounds, BS1 and BS4 (two to three times the IC50 value), were added. After a 48 h incubation, the assays were performed using a FITC Annexin V Apoptosis Detection KIT with 7-AAD (Bio-Legend) according to the manufacturer’s instructions. Briefly, the cells were collected, washed twice with cold PBS and centrifuged at 300 g for 5 min. Next, the cells were resuspended in a 100 µL Annexin V Binding Buffer and incubated for 15 min at room temperature in the dark with 5 µL of FITC Annexin V and 5 µL 7-AAD Viability Staining Solution. After immunostaining, the number of events for live, early and late apoptotic cells were determined using a Muse Cell Analyzer. The experiments were performed at least four times.",
  "data": [
    {"smiles": "COc1ccccc1/C=C/c1nc(OS(=O)(=O)c2ccc3c(c2)OCO3)c2ccccc2n1", "note": "[BS1, 2-((E)-2-(2-methoxyphenyl)ethenyl)quinazolin-4-yl 1,3-benzodioxole-5-sulfonate]", "values": [
      {"measurement": "Early apoptotic cells, mean ± SD", "value": 39.80, "unit": "%"},
      {"measurement": "Late apoptotic cells, mean ± SD", "value": 11.40, "unit": "%"}
    ]}
  ]
}
